Test results from ChEMBL document CHEMBL1201862, “PubChem BioAssay data set” (2004).
Calls of active or inactive are those of the source.

Tests used:
[1] = target: T1, Sentrin-specific protease 8 (Homo sapiens, UniProt Q96LD8); type: functional
T1 sequence (Q96LD8 whole entry): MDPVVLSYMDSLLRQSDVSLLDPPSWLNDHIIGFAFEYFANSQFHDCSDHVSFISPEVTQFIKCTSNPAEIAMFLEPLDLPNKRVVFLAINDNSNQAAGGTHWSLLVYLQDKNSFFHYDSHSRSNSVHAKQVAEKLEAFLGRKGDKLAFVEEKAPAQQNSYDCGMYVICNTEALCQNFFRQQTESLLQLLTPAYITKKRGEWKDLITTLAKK

[2] = target: T1, Sentrin-specific protease 8; type: functional; remark: listed apart in the source
[3] = viability of uninfected HEp-2 cells – cell-based, HTS, cytotoxicity control for RSV inhibitor project, dose response (AID 2410); type: functional; details: human respiratory syncytial virus
[4] = target: T2, Ubiquitin-conjugating enzyme E2 N (Homo sapiens, UniProt P61088); type: functional;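 further: Dose-response confirmation in a TR-FRET assay detecting UBC13-driven polyubiquitin chain formation, inhibition measured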
T2 sequence (P61088 whole entry): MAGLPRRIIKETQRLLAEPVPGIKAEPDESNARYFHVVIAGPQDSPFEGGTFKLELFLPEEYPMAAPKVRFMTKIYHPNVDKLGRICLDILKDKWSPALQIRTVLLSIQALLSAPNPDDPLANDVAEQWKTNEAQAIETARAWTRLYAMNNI

[5] = target: Glucose-6-phosphate 1-dehydrogenase (Homo sapiens, UniProt P11413); assay: inhibition of Homo sapiens G6PD, dose series – biochemical, fluorescence, selectivity assay for P. falciparum G6PD inhibitor project, dose response (AID 504792); type: functional
HEK293 [6] = assay: inhibition of NOD1-driven NF-kB reporter – cell-based, luminescence, uHTS, primary screen (AID 1578); type: functional; details: Homo sapiens
[7] = target: T3, Nucleotide-binding oligomerization domain-containing protein 1 (Homo sapiens, UniProt Q9Y239); assay: blockers of NOD1 pathway activity – revised, SAR follow-up (AID 2333); type: functional
T3 sequence (Q9Y239 whole entry): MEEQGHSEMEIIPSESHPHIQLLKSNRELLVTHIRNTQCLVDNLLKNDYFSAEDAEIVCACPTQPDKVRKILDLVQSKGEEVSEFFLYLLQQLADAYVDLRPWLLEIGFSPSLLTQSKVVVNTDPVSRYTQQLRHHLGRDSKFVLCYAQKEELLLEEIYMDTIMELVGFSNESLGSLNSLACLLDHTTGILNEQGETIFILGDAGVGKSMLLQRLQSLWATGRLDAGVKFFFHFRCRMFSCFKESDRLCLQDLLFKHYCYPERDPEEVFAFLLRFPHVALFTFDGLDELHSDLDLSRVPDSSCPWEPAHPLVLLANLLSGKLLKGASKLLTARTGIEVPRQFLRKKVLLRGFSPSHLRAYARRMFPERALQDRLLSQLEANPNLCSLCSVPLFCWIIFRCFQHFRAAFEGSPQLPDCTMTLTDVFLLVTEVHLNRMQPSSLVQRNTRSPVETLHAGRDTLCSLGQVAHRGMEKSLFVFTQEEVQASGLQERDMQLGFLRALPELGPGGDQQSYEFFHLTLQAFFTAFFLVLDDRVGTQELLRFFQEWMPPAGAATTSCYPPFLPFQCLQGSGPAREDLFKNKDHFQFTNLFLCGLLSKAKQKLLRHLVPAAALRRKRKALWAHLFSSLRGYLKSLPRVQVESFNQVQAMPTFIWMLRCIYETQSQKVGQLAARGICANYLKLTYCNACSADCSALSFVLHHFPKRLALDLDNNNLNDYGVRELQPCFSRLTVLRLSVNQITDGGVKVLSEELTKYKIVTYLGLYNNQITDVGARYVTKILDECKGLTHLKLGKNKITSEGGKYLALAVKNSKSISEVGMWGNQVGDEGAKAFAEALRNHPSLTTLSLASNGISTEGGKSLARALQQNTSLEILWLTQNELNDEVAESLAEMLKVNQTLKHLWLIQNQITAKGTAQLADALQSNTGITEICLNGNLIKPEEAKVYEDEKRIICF

HEK293 [8] = assay: cells; type: functional, cell-based; details: Homo sapiens
HEK293 [9] = assay: NOD2 signaling inhibitors in MDP-stimulated cells, cell-based, uHTS, luminescence (AID 2001); type: functional; details: Homo sapiens
HEK293 [10] = assay: cells; type: functional, cell-based; details: Homo sapiens; remark: listed apart in the source
Tumor necrosis factor = Tumor necrosis factor (Homo sapiens, UniProt P01375); assay: analog potency on TNFa NF-kB signaling – cell-based, revised, SAR follow-up (AID 2337); type: functional
HEK293 [11] = assay: cells; details: Homo sapiens
[12] = target: T4, Microphthalmia-associated transcription factor (Homo sapiens, UniProt O75030); assay: reducers of TRPM1 reporter luminescence, concentration series – cell-based, SK-MEL-5, cherry-picked, set 3, MITF inhibitor project, dose response (AID 493073); type: functional;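 further: SK-MEL-5 melanoma cells with luciferase driven by the MITF target TRPM1 promoter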
T4 sequence (O75030 whole entry): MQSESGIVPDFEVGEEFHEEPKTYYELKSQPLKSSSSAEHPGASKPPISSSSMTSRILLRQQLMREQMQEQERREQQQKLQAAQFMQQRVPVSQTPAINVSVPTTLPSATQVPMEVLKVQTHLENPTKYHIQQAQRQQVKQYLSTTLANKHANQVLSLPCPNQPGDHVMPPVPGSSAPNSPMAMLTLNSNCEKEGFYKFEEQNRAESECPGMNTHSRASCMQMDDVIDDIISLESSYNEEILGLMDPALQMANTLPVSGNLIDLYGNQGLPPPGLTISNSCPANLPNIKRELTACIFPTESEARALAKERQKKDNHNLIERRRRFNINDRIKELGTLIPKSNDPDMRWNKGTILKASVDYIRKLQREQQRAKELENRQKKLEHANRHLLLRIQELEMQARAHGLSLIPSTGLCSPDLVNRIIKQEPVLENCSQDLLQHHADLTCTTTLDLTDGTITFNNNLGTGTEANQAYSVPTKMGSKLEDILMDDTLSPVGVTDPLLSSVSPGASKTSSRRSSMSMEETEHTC

Vero = assay: cells; type: functional; details: Chlorocebus sabaeus
[13] = target: Heat shock protein HSP 90-alpha (Homo sapiens, UniProt P07900); type: functional, organism-based
[14] = activation of miR-122 Renilla sensor silencing – cell-based, Huh7 psiCHECK-miR122, Renilla luciferase, cherry-picked, dose response (AID 651956); type: functional;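 further: huh7 hepatoma cells stably carrying a psiCHECK-2 miR-122 sensor plasmid; renilla luciferase signal reporting endogenous miR-122 activity after 48 h compound exposure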
[15] = target: T5, Heat shock factor protein 1 (Mus musculus, UniProt P38532); assay: decrease of HSF1-responsive luciferase luminescence – cell-based, NIH3T3, dose retest, confirmation (AID 2382); type: functional;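 further: NIH3T3 fibroblasts with HSF1-driven luciferase reporter stressed by proteasome inhibitor MG132; luminescence from HSF1-driven luciferase expression after 8 hours of MG132 stress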
T5 sequence (P38532 whole entry): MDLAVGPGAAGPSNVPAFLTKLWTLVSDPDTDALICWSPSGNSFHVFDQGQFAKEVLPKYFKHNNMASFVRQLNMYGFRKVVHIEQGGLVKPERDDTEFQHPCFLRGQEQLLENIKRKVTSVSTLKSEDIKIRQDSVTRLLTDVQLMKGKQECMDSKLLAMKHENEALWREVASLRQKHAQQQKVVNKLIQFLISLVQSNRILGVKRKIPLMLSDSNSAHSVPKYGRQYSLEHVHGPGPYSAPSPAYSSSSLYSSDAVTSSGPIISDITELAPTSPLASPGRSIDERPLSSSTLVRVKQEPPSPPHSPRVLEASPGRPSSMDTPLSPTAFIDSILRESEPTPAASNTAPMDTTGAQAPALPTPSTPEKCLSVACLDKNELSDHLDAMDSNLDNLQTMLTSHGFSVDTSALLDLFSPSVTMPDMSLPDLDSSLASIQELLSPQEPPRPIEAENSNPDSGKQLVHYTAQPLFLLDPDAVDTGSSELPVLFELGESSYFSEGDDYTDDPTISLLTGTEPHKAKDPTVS

[16] = target: T6, Corticotropin-releasing factor receptor 2/Corticotropin-releasing factor-binding protein (Homo sapiens, UniProt P24387+Q13324); assay: Dose Response confirmation of uHTS hits for small molecule antagonists of the CRF-binding protein and CRF-R2 receptor complex.; type: functional; details: read-out: IC50_Mean
T6 sequence (Q13324 whole entry): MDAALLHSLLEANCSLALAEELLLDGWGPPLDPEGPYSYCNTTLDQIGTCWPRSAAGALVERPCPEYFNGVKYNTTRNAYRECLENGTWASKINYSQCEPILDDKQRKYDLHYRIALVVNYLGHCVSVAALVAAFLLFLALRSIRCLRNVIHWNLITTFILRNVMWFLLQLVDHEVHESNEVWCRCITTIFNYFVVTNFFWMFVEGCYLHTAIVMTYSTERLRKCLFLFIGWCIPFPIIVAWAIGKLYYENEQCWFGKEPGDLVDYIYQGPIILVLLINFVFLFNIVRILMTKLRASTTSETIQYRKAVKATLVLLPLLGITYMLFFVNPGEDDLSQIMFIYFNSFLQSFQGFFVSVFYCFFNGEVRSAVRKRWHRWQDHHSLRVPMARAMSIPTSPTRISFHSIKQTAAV
T6 sequence (P24387 whole entry): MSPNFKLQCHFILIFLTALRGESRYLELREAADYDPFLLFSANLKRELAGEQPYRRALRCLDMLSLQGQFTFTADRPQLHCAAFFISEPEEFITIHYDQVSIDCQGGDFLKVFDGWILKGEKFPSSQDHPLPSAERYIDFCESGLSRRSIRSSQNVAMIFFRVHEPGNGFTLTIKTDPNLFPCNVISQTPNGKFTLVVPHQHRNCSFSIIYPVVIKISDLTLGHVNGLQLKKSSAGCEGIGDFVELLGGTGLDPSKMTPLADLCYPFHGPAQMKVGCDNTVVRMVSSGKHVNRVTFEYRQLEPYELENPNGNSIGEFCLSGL

[17] = target: T6, Corticotropin-releasing factor receptor 2/Corticotropin-releasing factor-binding protein; assay: activators of CRF receptor 2 with binding protein – uHTS hits, confirmation (AID 602473); type: functional; details: read-out: EC50_Mean
[18] = NIH3T3 cell viability loss – ATP luminescence, mouse fibroblasts, counter-screen, dose response (AID 2010); type: functional, cell-based;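 further: cells exposed to compound for about 90 hours before reading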
[19] = Trypanosoma cruzi growth suppression in host cells – NIH3T3 host cells, beta-gal luminescence, confirmation (AID 2044); type: functional, cell-based;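 further: intracellular parasites grown in NIH/3T3 mouse fibroblasts as host cells; luminescent beta-galactosidase reporter signal from transgenic T. cruzi replicating inside host cells; inhibitors lower the luminescence signal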
cells = type: functional
[20] = non-specific 3'UTR reporter inhibition in Clone20-Shn3RL – cell-based, Renilla luciferase, cherry-picked, counter-screen for Shn3 inhibitor project, dose response (AID 624133); type: functional
[21] = reduction of Shn3 3'UTR-driven luciferase in osteoblasts – cell-based, Clone20 osteoblasts, firefly luciferase, cherry-picked, dose response (AID 624132); type: functional;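 further: firefly luciferase luminescence from reporter carrying the Shn3 3'UTR in osteoblasts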
[22] = loss of viability in HepG2 cells – cell-based, CellTiter-Glo, cherry-picked, cytotoxicity control for Shn3 inhibitor project, dose response (AID 624134); type: functional
[23] = microbe, parasite or virus in culture; type: functional; details: Mycobacterium tuberculosis

Chain of Glucose-6-phosphate 1-dehydrogenase (P11413 whole entry): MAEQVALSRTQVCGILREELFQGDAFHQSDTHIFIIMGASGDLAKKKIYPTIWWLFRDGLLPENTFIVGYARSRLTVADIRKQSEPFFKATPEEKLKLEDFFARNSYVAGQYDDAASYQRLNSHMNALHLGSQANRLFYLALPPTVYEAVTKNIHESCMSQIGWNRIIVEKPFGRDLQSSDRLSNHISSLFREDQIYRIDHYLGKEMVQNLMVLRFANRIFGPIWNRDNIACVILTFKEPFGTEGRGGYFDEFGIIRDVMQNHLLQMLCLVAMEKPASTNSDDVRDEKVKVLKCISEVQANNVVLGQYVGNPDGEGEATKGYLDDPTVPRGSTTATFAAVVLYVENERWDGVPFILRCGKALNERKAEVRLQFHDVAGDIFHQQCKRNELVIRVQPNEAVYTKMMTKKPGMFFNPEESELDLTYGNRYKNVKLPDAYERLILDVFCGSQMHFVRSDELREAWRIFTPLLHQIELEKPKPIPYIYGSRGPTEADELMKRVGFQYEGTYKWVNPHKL
Chain of Tumor necrosis factor (P01375 whole entry): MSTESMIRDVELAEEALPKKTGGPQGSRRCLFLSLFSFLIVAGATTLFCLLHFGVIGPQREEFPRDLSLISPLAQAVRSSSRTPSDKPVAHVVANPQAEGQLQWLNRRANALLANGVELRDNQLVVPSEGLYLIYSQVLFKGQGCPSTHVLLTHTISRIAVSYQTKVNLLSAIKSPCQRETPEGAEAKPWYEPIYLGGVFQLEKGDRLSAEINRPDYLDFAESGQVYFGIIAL

## Cc1ccc(C)c(N/C([S-])=C(/C(=O)c2ccc(Cl)s2)[n+]2ccccc2)c1
[1]
  IC50: 9.94 µM (active)
[2]
  IC50: 5.82 µM (active)

## COc1ccc(S(=O)(=O)N2CCN(c3ccc4nnc(-c5ccccc5)n4n3)CC2)cc1
[3]
  CC50: > 50 µM (active)
[4]
  IC50: > 20 µM (inactive)

## COC(=O)CCCC1=CC2=CC(=O)C(C)(OC(=O)c3cccs3)C(=O)C2=CN1CCCCO (stereo unspecified)
[1]
  IC50: 7.79 µM (active)
[2]
  IC50: 5.99 µM (active)

## CCn1c(=O)n(CC)c2cc(N3CCCC3)c(NC(=O)c3cccc(C)c3)cc21
[5]
  IC50: > 80 µM (inactive)

## COc1ccc(CNS(=O)(=O)c2ccc3c(c2)CC(C)N3C(=O)C2CC2)cc1 (stereo unspecified)
HEK293 [6]
  EC50: 3.88 µM (active)
[7]
  IC50: 13.1 µM (active)
HEK293 [8]
  IC50: 7.96 µM (active)
HEK293 [9]
  IC50: 12.5 µM (inactive)
HEK293 [10]
  IC50: 14.8 µM (active)
Tumor necrosis factor
  IC50: > 20 µM (inactive)
HEK293 [11]
  IC50: > 20 µM (inactive)

## CCOc1cccc(C=NN=C(S)Nc2ccccc2[N+](=O)[O-])c1O
[7]
  IC50: 8.23 µM (active)
Tumor necrosis factor
  IC50: 0.414 µM (active)
HEK293 [11]
  IC50: > 20 µM (inactive)

## O=[N+]([O-])/C=C\c1ccc(N2CCCC2)c(F)c1
[12]
  AC50: 13.4 µM (active)
Vero
  CC50: 18.6 µM (active)
[13]
  AC50: 8.22 µM (active)

## COc1ccccc1CN1CCC(CNS(=O)(=O)c2cc(-c3cc(C)no3)ccc2OC)CC1
Vero
  CC50: > 25 µM (active)

## CCOc1ccccc1NC(=O)CCCc1nc(O)c2ccccc2n1
[5]
  IC50: 71.7 µM (inactive)

## O=C(CNCCC1=CCCCC1)Nc1ccccc1N1CCCCCC1
[14]
  AC50: 2.54 µM (active)

## Cc1ccc2c(c1)C1CN(C)CCC1N2C(=O)Nc1cccc(C(F)(F)F)c1 (stereo unspecified)
[15]
  EC50: > 195 µM (not active)
Vero
  CC50: > 25 µM (active)

## COC(=O)c1c(NC(=O)C=Cc2cccs2)sc2c1CCC(C)C2 (stereo unspecified)
[7]
  IC50: 9.46 µM (active)
Tumor necrosis factor
  IC50: 5.68 µM (active)
HEK293 [11]
  IC50: > 20 µM (inactive)

## CCNc1cc2c(cc1O)CCC1C2CCC2(C)C(O)CCC12 (stereo unspecified)
[5]
  IC50: > 80 µM (inactive)

## C/C=C/c1ccc2c(c1)O[C@H](CN(C)C(=O)Cc1cccnc1)[C@H](C)CN([C@H](C)CO)S2(=O)=O
[14]
  AC50: 10.7 µM (active)

## CNC(=O)C[C@@H]1CC[C@@H]2[C@@H](COc3ccc(NC(=O)c4cccc(OC)c4)cc3C(=O)N2C)O1
[14]
  AC50: 67.7 µM (active)

## COc1ccc(Cl)cc1Nc1nc(NCCO)nc(N2CCCCC2)n1
[16]
  IC50: > 47.1 µM (inactive)
[17]
  EC50: > 53 µM (inactive)
[4]
  IC50: > 20 µM (inactive)

## O=C(Nc1ccccc1N1CCCC1)c1ccc([N+](=O)[O-])o1
[1]
  IC50: 31.3 µM (active)
[18]
  EC50: 13.5 µM (active)
[2]
  IC50: 66.9 µM (inactive)
[19]
  EC50: 0.105 µM (active)

## CCOc1ccc2ccccc2c1/C=N/NC(=O)c1ccncc1
cells
  IC50: 0.21 µM (active)
[5]
  IC50: 27.1 µM (inactive)

## COC1=CC(=O)C=C(OC)C1(O)CC(C)=O
[5]
  IC50: 54.3 µM (inactive)

## Oc1ccccc1Nc1nc(NCc2ccccc2)c2ccccc2n1
[20]
  AC50: 5.63 µM (active)
[21]
  AC50: 10.7 µM (active)
[4]
  IC50: > 20 µM (inactive)
[22]
  AC50: 52.7 µM (active)
[23]
  CC50: 23.9 µM (active)
